Experimental data reported in the supplement of paper PMC10307832.

Assays:
Assay in all cases: relative viability (nuclei count vs DMSO), 5 days (fraction); higher = more cells survive
[1] = compound: C1CNCCC1C2=CC(=NN2)C3=CC=NC=C3 + N=C(N)NC(=N)NCCc1ccccc1 [Phenformin] (partner 250 µM)
In short: (§1)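 Lung cancer cell lines, seeded in 1536-well plates, were treated the following day by pin tool with a single drug or with five library-drug doses (not always all listed) in √10 steps on top of a fixed anchor-drug dose. Cells were fixed and nuclei stained in one step after 5 days, and nuclei were counted. Relative viability is the nuclei count for treated wells divided by that for vehicle wells, reported as medians of duplicate plates.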

[2] = compound: C[C@@H](N)c1ccc(C(=O)Nc2ccnc3[nH]ccc23)cc1 + CCNC(=O)c1noc(-c2cc(C(C)C)c(O)cc2O)c1-c1ccc(CN2CCOCC2)cc1 [Luminespib] (partner 0.01 µM)
In short: as §1

[3] = compound: C[C@@H](N)c1ccc(C(=O)Nc2ccnc3[nH]ccc23)cc1 + CC(=O)Nc1cccc(-n2c(=O)n(C3CC3)c(=O)c3c(Nc4ccc(I)cc4F)n(C)c(=O)c(C)c32)c1 [Trametinib] (partner 0.02 µM)
In short: as §1

[4] = compound: C1CNCCC1C2=CC(=NN2)C3=CC=NC=C3 + CC1(C)CCC(c2ccc(Cl)cc2)=C(CN2CCN(c3ccc(C(=O)NS(=O)(=O)c4ccc(N[C@H](CCN5CCOCC5)CSc5ccccc5)c(S(=O)(=O)C(F)(F)F)c4)cc3)CC2)C1 [Navitoclax] (partner 0.5 µM)
In short: as §1

| Cell Line | relative viability ([1]; first compound 0.08 µM) | relative viability ([1]; first compound 0.8 µM) | relative viability ([1]; first compound 2.53 µM) | relative viability ([1]; first compound 8 µM) | relative viability ([2]; first compound 0.04 µM) | relative viability ([2]; first compound 0.4 µM) | relative viability ([2]; first compound 1.265 µM) | relative viability ([2]; first compound 4 µM) | relative viability ([3]; first compound 0.04 µM) | relative viability ([3]; first compound 0.1265 µM) | relative viability ([3]; first compound 0.4 µM) | relative viability ([3]; first compound 1.265 µM) | relative viability ([3]; first compound 4 µM) | relative viability ([4]; first compound 0.08 µM) | relative viability ([4]; first compound 0.8 µM) | relative viability ([4]; first compound 2.53 µM) | relative viability ([4]; first compound 8 µM) | relative viability ([2]; first compound 0.1265 µM) |
| --- | --- | --- | --- | --- | --- | --- | --- | --- | --- | --- | --- | --- | --- | --- | --- | --- | --- | --- |
| NCI-H1792 | 0.231 | 0.237 | 0.38 | 0.227 | 0.407 | 0.568 | 0.45 | 0.448 | 0.5 | 0.465 | 0.597 | 0.698 | 0.324 | 0.611 | 0.679 | 0.639 | 0.589 |  |
| LXF-289 | 0.449 | 0.48 | 0.533 | 0.496 | 0.711 | 0.785 | 0.691 | 0.534 | 0.661 | 0.676 | 0.708 | 0.797 | 0.588 | 0.957 | 1.02 | 0.977 | 0.934 | 0.616 |
| HCC-827 | 0.375 | 0.392 | 0.414 | 0.358 | 0.786 | 0.698 | 0.848 | 0.608 |  | 0.703 | 0.758 | 0.763 | 0.653 | 0.972 | 0.995 | 0.991 | 0.876 | 0.686 |
| EMC-BAC-2 | 0.499 | 0.609 | 0.661 | 0.552 | 1.15 | 1.25 | 1.09 | 1.04 | 0.958 | 1.04 | 1.03 | 1.01 | 0.969 | 1.11 | 1.37 | 1.25 | 1.14 | 1.22 |
| NCI-H520 | 0.439 | 0.309 | 0.758 | 0.908 | 0.192 | 0.24 | 0.218 | 0.213 | 0.915 | 0.73 | 0.697 | 0.891 | 0.719 | 1.06 | 1.01 | 1.06 | 1.28 | 0.188 |
| NCI-H1755 | 0.631 |  | 0.688 | 0.553 | 0.384 | 0.69 | 0.397 | 0.26 | 0.768 | 0.752 | 0.761 | 0.707 | 0.644 | 0.978 | 0.942 | 1.04 | 0.935 | 0.426 |
| NCI-H1993 | 0.497 | 0.488 | 0.547 | 0.533 | 0.857 | 0.806 | 0.928 | 0.684 | 0.607 | 0.519 |  | 0.569 | 0.511 | 0.9 | 0.866 | 1.01 | 0.908 | 0.923 |
| NCI-H23 | 0.722 | 0.894 | 0.828 | 0.847 | 0.198 | 0.203 |  | 0.21 | 0.422 | 0.427 | 0.386 |  | 0.483 | 0.711 | 0.908 | 1.09 | 0.948 | 0.235 |
| SW 900 | 0.64 | 0.548 | 0.738 | 0.628 | 0.185 | 0.152 | 0.172 | 0.152 | 0.888 | 0.861 | 1.04 | 1.14 | 0.993 |  |  |  |  | 0.214 |
| NCI-H1437 | 0.34 | 0.313 | 0.298 | 0.299 | 1.1 | 1.21 | 1.13 | 0.907 | 0.647 | 0.572 | 0.681 | 0.601 | 0.638 | 1.06 | 1.11 | 1.1 | 1.12 | 1.05 |
| SK-MES-1 | 0.635 | 0.68 | 0.634 | 0.603 | 0.834 | 0.752 | 0.585 | 0.714 | 0.607 | 0.523 | 0.458 | 0.488 | 0.401 | 1.26 | 1.36 | 1.37 | 1.2 | 0.796 |
| NCI-H2405 | 0.44 | 0.285 | 0.385 | 0.383 | 0.461 | 0.577 | 0.279 | 0.238 |  | 0.64 | 0.418 | 0.377 | 0.299 | 1.03 | 0.823 | 1.5 | 0.849 | 0.805 |
| NCI-H1299 |  |  |  |  |  |  |  |  |  |  |  |  |  | 1.09 | 1.04 | 1.02 | 1.09 |  |
| NCI-H1563 | 0.619 | 0.642 | 0.679 | 0.673 | 0.514 | 0.499 | 0.508 | 0.514 |  |  |  |  |  |  |  |  |  | 0.484 |
| NCI-H661 | 0.277 | 0.263 | 0.273 | 0.273 | 0.921 | 0.873 | 0.781 | 0.811 | 0.48 | 0.595 | 0.571 | 0.475 | 0.494 |  |  |  |  | 0.923 |
| Calu-6 |  |  |  |  |  |  |  |  |  |  |  |  |  | 0.879 | 0.86 | 0.914 | 0.87 |  |
| NCI-H650 | 0.5 | 0.451 | 0.473 | 0.46 |  | 0.844 | 0.718 | 0.635 |  | 0.959 | 0.968 |  | 1.03 |  |  |  |  | 0.928 |
| NCI-H1703 |  |  |  |  |  |  |  |  |  |  |  |  |  | 1.08 | 1.59 | 1.15 | 1.35 |  |
| EBC-1 |  |  |  |  |  |  |  |  |  |  |  |  |  | 0.463 | 0.517 | 0.5 | 0.392 |  |
| NCI-H2342 | 0.512 | 0.501 | 0.688 | 0.631 | 0.858 | 0.719 | 0.802 | 0.808 | 0.91 | 0.821 | 0.837 | 0.746 | 0.737 |  |  |  |  | 0.797 |
| NCI-H1648 |  |  |  |  |  |  |  |  | 0.57 | 0.581 | 0.574 | 0.266 | 0.722 |  |  |  |  |  |
| NCI-H522 | 0.552 | 0.657 | 0.771 | 0.689 | 1.34 | 1.59 | 1.02 | 0.885 | 0.798 | 0.789 | 0.66 | 1.02 | 0.745 |  |  |  |  | 1.06 |
| A549 | 0.107 | 0.153 | 0.199 | 0.156 |  |  |  |  |  |  |  |  |  | 1.1 | 1.27 | 1.38 | 1.3 |  |
| LCLC-103H | 0.318 | 0.351 | 0.361 | 0.342 | 1.15 | 0.956 | 0.911 | 0.69 | 0.715 | 0.618 | 0.647 | 0.616 | 0.634 |  |  |  |  | 0.914 |
| HCC-78 | 0.695 | 0.56 | 0.68 | 0.719 |  |  |  |  | 0.979 | 0.793 | 0.981 | 1.2 | 0.661 | 0.729 |  | 0.836 | 0.884 |  |
